Assay results published in US20110112124A1, “FUNGICIDAL COMPOSITIONS” (SYNGENTA CROP PROTECTION, INC., priority 2008, published 2011).
Where two headings read alike, the source gives them in different places.

Tests used:
Sclerotinia sclerotiorum [1] = test: Example B3: liquid culture test, cottony rot; assay type: cell-based
[2] = tested on: Tapesia yallundae W-type (Pseudocercosporella herpotrichoides); test: Example B7: liquid culture test, eyespot; assay type: cell-based
[3] = tested on: Mycosphaerella arachidis (Cercospora arachidicola); test: Example B4: liquid culture test, early leaf spot; assay type: cell-based
Plasmopara viticola = test: Example B18: grape leaf disc preventative test
Description: Leaf disks or leaf segments of various plant species were cut from plants grown in the greenhouse. The cut leaf disks or segments were placed in multiwell plates (24-well format) onto water agar. The leaf disks were sprayed with a test solution before (preventative) or after (curative) inoculation. Compounds to be tested were prepared as DMSO solutions (max. 10 mg/ml) which were diluted to the appropriate concentration with 0.025% Tween20 just before spraying. The inoculated leaf disks or segments were incubated under defined conditions (temperature, relative humidity, light, etc.) according to the respective test system. A single evaluation of disease level was carried out 3-9 days after inoculation, depending on the pathosystem. Percent disease control relative to the untreated check leaf disks or segments was then calculated.
The leaf disks were inoculated with a spore suspension of the fungus 1 day after application. The inoculated leaf disks were incubated at 19° C. and 80% rh under a light regime of 12 h light/12 h darkness in a climate cabinet and the activity of a compound was assessed as percent disease control compared to untreated when an appropriate level of disease damage appears in untreated check leaf disks (6-8 days after application).

[4] = tested on: Tapesia yallundae W-type (Pseudocercosporella herpotrichoides); test: Example B14: liquid culture test, eyespot; assay type: cell-based
[5] = tested on: Thanatephorus cucumeris (Rhizoctonia solani); test: Example B15: liquid culture test, foot rot, damping-off; assay type: cell-based
[6] = tested on: Botryotinia fuckeliana (Botrytis cinerea); test: Example B11: liquid culture test, gray mould; assay type: cell-based
Pythium ultimum = test: Example B2: liquid culture test, seedling damping off; assay type: cell-based
[7] = tested on: Tapesia yallundae W-type (Pseudocercosporella herpotrichoides); test: Example B10: liquid culture test, eyespot; assay type: cell-based
[8] = tested on: Mycosphaerella graminicola (Septoria tritici); test: Example B17: liquid culture test, Septoria blotch; assay type: cell-based
Sclerotinia sclerotiorum [9] = test: Example B8: liquid culture test, cottony rot; assay type: cell-based
[10] = tested on: Tapesia yallundae W-type (Pseudocercosporella herpotrichoides); test: Example B5: liquid culture test, eyespot; assay type: cell-based
Fusarium culmorum = assay type: cell-based
[11] = tested on: Botryotinia fuckeliana (Botrytis cinerea); test: Example B16: liquid culture test, gray mould; assay type: cell-based
[12] = tested on: Mycosphaerella graminicola (Septoria tritici); test: Example B9: liquid culture test, Septoria blotch; assay type: cell-based
[13] = tested on: Mycosphaerella graminicola (Septoria tritici); test: Example B6: liquid culture test, Septoria blotch; assay type: cell-based
[14] = tested on: Mycosphaerella graminicola (Septoria tritici); test: Example B13: liquid culture test, Septoria blotch; assay type: cell-based
[15] = tested on: Botryotinia fuckeliana (Botrytis cinerea); test: Example B1: liquid culture test, gray mould; assay type: cell-based

COC(c1ccc(Cl)cc1Cl)C(C)NC(=O)c1cn(C)nc1C(F)F (racemic) [Comp. 1.001, 3-difluoromethyl-1-methyl-1H-pyrazole-4-carboxylic acid [2-(2,4-dichlorophenyl)-2-methoxy-1-methyl-ethyl]-amide]
% action (Sclerotinia sclerotiorum [1]; 0.313 ppm): 20%
% action (Sclerotinia sclerotiorum [1]; 0.625 ppm): 50%
% action (Sclerotinia sclerotiorum [1]; 1.250 ppm): 70%
% action ([2]; 0.039 ppm): 0%
% action ([2]; 0.078 ppm): 0%
% action ([2]; 0.156 ppm): 20%
% action ([2]; 0.313 ppm): 20%
% action ([2]; 0.625 ppm): 50%
% action ([2]; 1.250 ppm): 70%
% action ([3]; 0.039 ppm): 0%
% action ([3]; 0.078 ppm): 20%
% action (Plasmopara viticola; 0.625 ppm): 0%
% action (Plasmopara viticola; 1.250 ppm): 0%
% action (Plasmopara viticola; 2.500 ppm): 0%
% action (Plasmopara viticola; 5.000 ppm): 7%
% action (Plasmopara viticola; 10.000 ppm): 0%
% action ([4]; 0.156 ppm): 20%
% action ([4]; 0.313 ppm): 20%
% action ([4]; 0.625 ppm): 50%
% action ([4]; 1.250 ppm): 70%
% action ([5]; 0.250 ppm): 0%
% action ([5]; 0.500 ppm): 0%
% action ([5]; 1.000 ppm): 0%
% action ([5]; 2.000 ppm): 0%
% action ([6]; 0.031 ppm): 0%
% action ([6]; 0.063 ppm): 0%
% action ([6]; 0.125 ppm): 20%
% action ([6]; 0.250 ppm): 20%
% action ([6]; 0.500 ppm): 50%
% action (Pythium ultimum; 2.500 ppm): 0%
% action (Pythium ultimum; 5.000 ppm): 0%
% action (Pythium ultimum; 10.000 ppm): 0%
% action (Pythium ultimum; 20.000 ppm): 0%
% action ([7]; 0.078 ppm): 0%
% action ([7]; 0.156 ppm): 0%
% action ([7]; 0.313 ppm): 20%
% action ([7]; 0.625 ppm): 20%
% action ([7]; 1.250 ppm): 50%
% action ([8]; 0.016 ppm): 0%
% action ([8]; 0.031 ppm): 0%
% action ([8]; 0.063 ppm): 20%
% action ([8]; 0.125 ppm): 50%
% action (Sclerotinia sclerotiorum [9]; 0.078 ppm): 0%
% action (Sclerotinia sclerotiorum [9]; 0.156 ppm): 0%
% action (Sclerotinia sclerotiorum [9]; 0.313 ppm): 20%
% action (Sclerotinia sclerotiorum [9]; 0.625 ppm): 50%
% action (Sclerotinia sclerotiorum [9]; 1.250 ppm): 70%
% action ([10]; 0.156 ppm): 0%
% action ([10]; 0.313 ppm): 20%
% action ([10]; 0.625 ppm): 50%
% action ([10]; 1.250 ppm): 70%
% action (Fusarium culmorum; 0.063 ppm): 0%
% action (Fusarium culmorum; 0.125 ppm): 0%
% action (Fusarium culmorum; 0.250 ppm): 0%
% action (Fusarium culmorum; 0.500 ppm): 0%
% action (Fusarium culmorum; 1.000 ppm): 0%
% action (Fusarium culmorum; 2.000 ppm): 20%
% action ([11]; 0.016 ppm): 0%
% action ([11]; 0.031 ppm): 0%
% action ([11]; 0.063 ppm): 20%
% action ([11]; 0.125 ppm): 20%
% action ([12]; 0.078 ppm): 20%
% action ([12]; 0.156 ppm): 70%
% action ([13]; 0.156 ppm): 70%
% action ([13]; 0.313 ppm): 90%
% action ([14]; 0.078 ppm): 20%
% action ([14]; 0.156 ppm): 70%
% action ([15]; 0.063 ppm): 20%
% action ([15]; 0.125 ppm): 20%
% action ([15]; 0.250 ppm): 50%
% action ([15]; 0.500 ppm): 50%
% action ([15]; 1.000 ppm): 70%

CO/C=C(/C(=O)OC)c1ccccc1Oc1cc(Oc2ccccc2C#N)ncn1 [Azoxystrobin, azoxystrobin]
% action (Sclerotinia sclerotiorum [1]; 0.625 ppm): 0%
% action (Sclerotinia sclerotiorum [1]; 1.250 ppm): 20%
% action (Sclerotinia sclerotiorum [1]; 2.500 ppm): 20%
% action (Sclerotinia sclerotiorum [1]; 5.000 ppm): 50%
% action ([3]; 0.039 ppm): 20%
% action ([3]; 0.078 ppm): 50%
% action ([3]; 0.156 ppm): 70%
% action (Pythium ultimum; 10.000 ppm): 50%
% action (Pythium ultimum; 20.000 ppm): 70%
% action ([10]; 0.078 ppm): 0%
% action ([10]; 0.156 ppm): 0%
% action ([10]; 0.313 ppm): 20%
% action ([10]; 0.625 ppm): 20%
% action ([10]; 1.250 ppm): 20%
% action ([10]; 2.500 ppm): 20%
% action ([10]; 5.000 ppm): 20%
% action ([15]; 0.063 ppm): 0%
% action ([15]; 0.125 ppm): 20%
% action ([15]; 0.250 ppm): 20%
% action ([15]; 0.500 ppm): 50%
% action ([15]; 1.000 ppm): 50%
% action ([15]; 2.000 ppm): 50%

N#Cc1c(Cl)c(Cl)c(Cl)c(C#N)c1Cl [Chlorothalonil, chlorothalonil, reference compound]
% action ([7]; 0.156 ppm): 20%
% action ([7]; 0.313 ppm): 20%
% action (Sclerotinia sclerotiorum [9]; 0.156 ppm): 0%
% action (Sclerotinia sclerotiorum [9]; 0.313 ppm): 20%
% action (Sclerotinia sclerotiorum [9]; 0.625 ppm): 90%
% action ([12]; 0.078 ppm): 20%
% action ([12]; 0.156 ppm): 50%

Cc1cc(C2CC2)nc(Nc2ccccc2)n1 [Cyprodinil, cyprodinil]
% action ([2]; 0.039 ppm): 0%
% action ([2]; 0.078 ppm): 0%
% action ([2]; 0.156 ppm): 0%
% action ([2]; 0.313 ppm): 0%
% action ([2]; 0.625 ppm): 0%
% action ([2]; 1.250 ppm): 0%
% action ([2]; 2.500 ppm): 0%
% action ([2]; 5.000 ppm): 0%
% action ([13]; 0.156 ppm): 0%
% action ([13]; 0.313 ppm): 0%
% action ([13]; 0.625 ppm): 0%
% action ([13]; 1.250 ppm): 0%

N#Cc1c[nH]cc1-c1cccc2c1OC(F)(F)O2 [Fludioxonil, fludioxonil, reference compound]
% action ([6]; 0.063 ppm): 20%
% action ([6]; 0.125 ppm): 70%
% action (Fusarium culmorum; 0.250 ppm): 20%
% action (Fusarium culmorum; 0.500 ppm): 70%

C#CCOc1ccc(CCNC(=O)C(OCC#C)c2ccc(Cl)cc2)cc1OC (stereo not drawn) [Mandipropamid, mandipropamid, reference compound]
% action (Plasmopara viticola; 0.625 ppm): 30%
% action (Plasmopara viticola; 1.250 ppm): 37%
% action (Plasmopara viticola; 2.500 ppm): 67%

CCCC(Cn1cncn1)c1ccc(Cl)cc1Cl (stereo not drawn) [Penconazole, penconazole]
% action ([14]; 0.078 ppm): 0%
% action ([14]; 0.156 ppm): 0%
% action ([14]; 0.313 ppm): 0%
% action ([14]; 0.625 ppm): 20%

CC(C)(C)C(O)(CCc1ccc(Cl)cc1)Cn1cncn1 (stereo not drawn) [Tebuconazol, tebuconazole, reference compound]
% action ([4]; 0.625 ppm): 20%

CC(C)C1C2CCC1c1c(NC(=O)c3cn(C)nc3C(F)F)cccc12 (stereo not drawn) [isopyrazam, reference compound]
% action ([5]; 0.125 ppm): 50%
% action ([5]; 0.250 ppm): 70%
% action ([5]; 0.500 ppm): 70%
% action ([5]; 1.000 ppm): 70%
% action ([5]; 2.000 ppm): 70%
% action ([8]; 0.031 ppm): 0%
% action ([8]; 0.063 ppm): 20%
% action ([8]; 0.125 ppm): 70%
% action ([11]; 0.031 ppm): 20%
% action ([11]; 0.063 ppm): 20%
